Source: patent US20110008347A1, “CANCER-RELATED PROTEIN KINASES” (Agency for Science ,Technology and Research, priority 2006, published 2011)

Assays:
[1] = test system: HEK293; assay: Viability of non-cancerous cell line HEK293 exposed to FGFR inhibitor; format: cell-based; settings: non-cancerous cell line HEK293, data not shown
[2] = test system: HuH7 cells; assay: AFP production in HuH7 cells after exposure to FGFR inhibitor; format: cell-based, human; settings: HuH7, 0, 1, 5 and 10 μM (FIG. 15)
Protocol: (§1) Supernatants from the respective FGF19 stimulation and siRNA experiments were subjected to AFP ELISA assay using the DELFIA hAFP kit (Perkin Elmer, Boston, Mass.), performed according to manufacturer's protocol. The readout was converted to concentration (ng/mL) using the standard curve derived from the solutions provided in the kit. AFP production by the cells was subsequently normalized to the number of cells in each well. The cell number was determined by ATP bioluminescence Cell-Titer Glo assay (Promega, Madison, Wis.) using protocol as described by the manufacturer.

[3] = test system: HuH7; assay: Viability of HCC cell lines (HuH7) exposed to FGFR inhibitor; format: cell-based, human
[4] = target: T1, FGFR4 (Homo sapiens, UniProt P22455); assay: FGF19 ligand stimulation, AFP ELISA, HepG2; format: cell-based; parameters: endogenous in cells; settings: HepG2, 50 and 100 ng/ml FGF19 (FIG. 12)
Protocol: (§2) HepG2 or HuH7 cells were seeded into 96-well plates and allowed to attach overnight. They were serum-starved for 24 h before addition of heparin. Two hours later, FGF19 (R&D Systems, Minneapolis, Minn., 50-100 ng/mL final concentration) was administered. After 8 hours, aliquots of the supernatant were harvested for AFP ELISA assay as described below. Similar FGF19 stimulations were performed in 10 cm dishes for immunoblot detection of phospho-FRS2α.
as §1

[5] = target: T1, FGFR4; assay: FGF19 ligand stimulation, AFP ELISA, HuH7; format: cell-based; parameters: stimulation of FGFR4 in the HCC cell line HuH7 using 50 and 100 ng/ml of the specific ligand FGF19; endogenous in cells; host or cells: HuH7
Protocol: as §2, §1

T1 sequence (P22455 22-802): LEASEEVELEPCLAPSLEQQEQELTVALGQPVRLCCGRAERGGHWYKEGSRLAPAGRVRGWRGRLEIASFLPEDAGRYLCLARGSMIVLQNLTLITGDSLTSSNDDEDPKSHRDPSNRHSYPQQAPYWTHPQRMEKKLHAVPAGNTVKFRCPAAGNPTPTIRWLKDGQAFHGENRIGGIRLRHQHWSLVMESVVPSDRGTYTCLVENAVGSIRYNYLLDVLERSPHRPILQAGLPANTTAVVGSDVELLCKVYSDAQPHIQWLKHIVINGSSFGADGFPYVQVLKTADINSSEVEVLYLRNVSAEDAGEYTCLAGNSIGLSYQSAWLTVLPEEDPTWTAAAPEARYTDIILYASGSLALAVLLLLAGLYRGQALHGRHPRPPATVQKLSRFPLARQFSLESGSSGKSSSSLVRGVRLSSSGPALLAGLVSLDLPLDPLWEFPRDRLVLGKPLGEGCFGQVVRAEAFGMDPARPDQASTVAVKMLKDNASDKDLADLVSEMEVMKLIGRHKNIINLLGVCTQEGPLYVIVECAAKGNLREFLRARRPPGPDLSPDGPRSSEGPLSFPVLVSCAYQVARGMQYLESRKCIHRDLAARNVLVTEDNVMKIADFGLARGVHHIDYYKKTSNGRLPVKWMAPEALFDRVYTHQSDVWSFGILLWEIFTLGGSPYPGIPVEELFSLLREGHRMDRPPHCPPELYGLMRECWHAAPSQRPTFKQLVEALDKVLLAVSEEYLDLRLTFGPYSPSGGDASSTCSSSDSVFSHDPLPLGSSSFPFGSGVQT

Row | Compound | LD50 [1] [µM] | AFP production [2] | anti-proliferative effect ([3]; HCC cell lines vs. non-cancerous cell line HEK293) | anti-proliferative effect (viability) ([3]; HuH7 (FIG. 16)) | AFP production [4] | AFP production ([5]; HCC cell lines (FIG. 11, FIG. 12)) | AFP production ([5]; HuH7, 50 and 100 ng/ml FGF19 (FIG. 11))
1 | CCN(CC)CCCCNc1ncc2cc(-c3cc(OC)cc(OC)c3)c(NC(=O)NC(C)(C)C)nc2n1 [PD173074] | > 50 | blocks AFP production | exquisite anti-proliferative effect | exquisite anti-proliferative effect | – | – | –
2 | FGF19: specific ligand used for stimulation of FGFR4 (R&D Systems) | – | – | – | – | elevated AFP production | elevated AFP production | elevated AFP production
